{"source": "paper PMC6628235", "about": "(Marine Drugs, 2019)", "format_in_all_cases": "biochemical", "key": {"[1]": {"target": "acetylcholinesterase (AChE) (Electrophorus electricus, UniProt O42275)", "sequence (O42275 24-633)": "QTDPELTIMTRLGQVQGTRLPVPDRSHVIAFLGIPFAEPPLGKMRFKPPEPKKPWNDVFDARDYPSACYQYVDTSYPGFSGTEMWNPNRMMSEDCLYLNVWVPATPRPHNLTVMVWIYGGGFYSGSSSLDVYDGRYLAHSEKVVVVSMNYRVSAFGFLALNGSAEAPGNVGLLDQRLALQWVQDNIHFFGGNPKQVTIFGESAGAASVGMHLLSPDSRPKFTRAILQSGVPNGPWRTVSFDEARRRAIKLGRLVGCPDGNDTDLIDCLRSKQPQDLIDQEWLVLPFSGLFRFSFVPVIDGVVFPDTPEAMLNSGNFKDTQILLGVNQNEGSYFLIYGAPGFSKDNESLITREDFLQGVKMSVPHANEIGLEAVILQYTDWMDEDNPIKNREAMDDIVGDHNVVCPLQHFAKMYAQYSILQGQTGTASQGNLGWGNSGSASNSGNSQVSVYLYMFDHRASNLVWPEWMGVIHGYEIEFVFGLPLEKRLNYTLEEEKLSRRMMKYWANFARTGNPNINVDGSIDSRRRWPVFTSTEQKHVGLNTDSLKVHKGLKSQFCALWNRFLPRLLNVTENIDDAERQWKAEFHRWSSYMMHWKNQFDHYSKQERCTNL", "assay": "modified Ellman's microplate assay ([…] inhibition at […])"}, "[2]": {"target": "T1, butyrylcholinesterase (BuChE) (Equus caballus, UniProt P81908)", "T1 construct": "gene BCHE", "T1 sequence (P81908 whole entry)": "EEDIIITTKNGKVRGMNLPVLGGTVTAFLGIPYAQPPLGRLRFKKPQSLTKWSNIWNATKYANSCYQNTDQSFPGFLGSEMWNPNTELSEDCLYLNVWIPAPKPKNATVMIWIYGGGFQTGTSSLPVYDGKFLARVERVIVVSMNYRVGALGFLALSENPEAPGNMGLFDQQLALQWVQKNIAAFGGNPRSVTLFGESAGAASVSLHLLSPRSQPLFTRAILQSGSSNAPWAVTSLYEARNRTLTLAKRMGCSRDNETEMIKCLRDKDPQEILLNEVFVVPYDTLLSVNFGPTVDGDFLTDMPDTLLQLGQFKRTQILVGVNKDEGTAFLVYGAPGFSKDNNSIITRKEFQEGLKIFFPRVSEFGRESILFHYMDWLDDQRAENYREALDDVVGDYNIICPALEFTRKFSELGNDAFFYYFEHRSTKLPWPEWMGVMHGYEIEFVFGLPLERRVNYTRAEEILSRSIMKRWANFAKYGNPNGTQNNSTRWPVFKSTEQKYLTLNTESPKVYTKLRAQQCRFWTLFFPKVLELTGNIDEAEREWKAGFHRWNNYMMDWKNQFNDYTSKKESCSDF", "assay": "modified Ellman's assay, positive control, % inhibition at […] (IC50 not determined)"}, "[3]": {"target": "T1, butyrylcholinesterase (BuChE)", "assay": "modified Ellman's assay, % inhibition at […] (IC50 not determined)"}}}
{"smiles": "Cc1cc2nc3[nH]c(=O)[nH]c(=O)c3nc2cc1C", "note": "[compound 3, lumichrome]", "values": [{"measurement": "IC50", "setting": "[1]", "value": "12.24 ± 0.12", "unit": "µM"}]}
{"smiles": "COc1ccc2c3c1O[C@H]1C[C@@H](O)C=C[C@@]31CCN(C)C2", "note": "[galantamine]", "values": [{"measurement": "% inhibition at 6.25 μM", "setting": "[2]", "value": "10.34 ± 0.21"}]}
{"smiles": "CC1=C[C@H](O)[C@]2(CC1=O)C[C@H](O)C(C)(C)O2", "note": "[compound 1, (3S, 5R, 10S)-3,10-dihydroxy-2,2,8-trimethyl-1-oxospiro[4.5]dec-8-en-7-one]", "values": [{"measurement": "inhibition at 6.25 µM", "setting": "[3]", "value": "30.71 ± 0.21", "unit": "%"}]}
